Reference: the supplement of paper PMC11451515

Columns and labels:
Conditions in all cases: 48 h
SEM cells [1] = assay: cell viability relative to DMSO control; higher = less cytotoxic
Procedure, shortened: (§1)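 Library compounds in DMSO were pin-dosed in an 11-point threefold series (47 μM to 0.79 nM) onto leukemia cells in 1536-well plates (5 μl). Plates held 500 cells/well of NOMO1 or SEM or 1000 cells/well of P12-Ichikawa, each adapted for at least four passages in each medium. Luminescence was read with CellTiter-Glo One after 48 h at 37°C. Viability means the per-plate percentage relative to DMSO wells, using cell-free wells as background.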

SEM cells [2] = assay: AUC of viability dose-response curve (% viability x log10 dose units); higher = less sensitive
Procedure, shortened: (§2)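 In 1536-well plates, leukemia cells adapted to each medium (500 or 1000 cells/well) were exposed for 48 h at 37°C to library compounds in DMSO across 11 threefold doses, 47 μM down to 0.79 nM. Viability was read by CellTiter-Glo One luminescence and normalised per plate to DMSO and cell-free wells. A four-parameter log-logistic fit over log10 doses was integrated by trapezoidal rule. This yielded the area under the curve, with over-full-viability curves scaled and quality-control failures dropped.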

P12-Ichikawa [3] = assay: as above
Procedure, shortened: as §2

NOMO1 [4] = assay: as above
Procedure, shortened: as §2

P12-Ichikawa [5] = assay: cell viability relative to DMSO control; higher = less cytotoxic
Procedure, shortened: as §1

NOMO1 [6] = assay: as above
Procedure, shortened: as §1

CCCN[S+](=O)([O-])Nc1ncnc(OCCOc2ncc(Br)cn2)c1-c1ccc(Br)cc1
SEM cells [1], HPLM + 10% dialyzed FBS
Conditions | cell viability [%]
0.000781 µM | 125
0.00234 µM | 120
0.00702 µM | 123
0.0211 µM | 120
0.0632 µM | 123
0.19 µM | 137
0.569 µM | 123
1.71 µM | 123
5.12 µM | 124
15.4 µM | 131
46.1 µM | 88.8

AUC of viability dose-response curve
Conditions | NOMO1 [4] | P12-Ichikawa [3] | SEM cells [2]
HPLM + 10% dialyzed FBS | 442 | 457 | 470
RPMI 5 mM glucose + 10% FBS | 468 | 431 | 468
RPMI 5 mM glucose + 10% dialyzed FBS | 468 | 452 | 429

Cl.O[C@@H](CNC[C@H](O)[C@H]1CCc2cc(F)ccc2O1)[C@@H]1CCc2cc(F)ccc2O1
AUC of viability dose-response curve
Conditions | NOMO1 [4] | P12-Ichikawa [3] | SEM cells [2]
HPLM + 10% dialyzed FBS | 439 | 465 | 450
RPMI 5 mM glucose + 10% FBS | 446 | 441 | 444
RPMI 5 mM glucose + 10% dialyzed FBS | 415 | 448 | 455

CC1(C)OC/2=C(\[C@H](NCC3=CC=CC=C3)[C@@H]1O)C(=O)C4=CC=CC=C4C2=O
cell viability [%]
Conditions | NOMO1 [6] | P12-Ichikawa [5] | SEM cells [1]
HPLM + 10% dialyzed FBS, 0.000781 µM | 112 | 102 | 103
HPLM + 10% dialyzed FBS, 0.00234 µM | 36.5 | 106 | 95.6
HPLM + 10% dialyzed FBS, 0.00702 µM | 117 | 107 | 91
HPLM + 10% dialyzed FBS, 0.0211 µM | 101 | 104 | 115
HPLM + 10% dialyzed FBS, 0.0632 µM | 104 | 106 | 98.4
HPLM + 10% dialyzed FBS, 0.19 µM | 96.1 | 108 | 111
HPLM + 10% dialyzed FBS, 0.569 µM | 108 | 102 | 106
HPLM + 10% dialyzed FBS, 1.71 µM | 82.5 | 94 | 110
HPLM + 10% dialyzed FBS, 5.12 µM | 37.6 | 96.4 | 83.6
HPLM + 10% dialyzed FBS, 15.4 µM | 22.4 | 47.8 | 41.1
HPLM + 10% dialyzed FBS, 46.1 µM | 7.72 | 6.77 | 9.15
RPMI 5 mM glucose + 10% FBS, 0.000781 µM | 89.7 | 100 | 80.9
RPMI 5 mM glucose + 10% FBS, 0.00234 µM | 99.6 | 102 | 71.7
RPMI 5 mM glucose + 10% FBS, 0.00702 µM | 89.2 | 102 | 98.4
RPMI 5 mM glucose + 10% FBS, 0.0211 µM | 95.5 | 115 | 83.9
RPMI 5 mM glucose + 10% FBS, 0.0632 µM | 86.7 | 96.4 | 94.1
RPMI 5 mM glucose + 10% FBS, 0.19 µM | 93.8 | 99.8 | 91.9
RPMI 5 mM glucose + 10% FBS, 0.569 µM | 95 | 98.8 | 108
RPMI 5 mM glucose + 10% FBS, 1.71 µM | 98.2 | 88.3 | 99.7
RPMI 5 mM glucose + 10% FBS, 5.12 µM | 37.4 | 71.8 | 54.2
RPMI 5 mM glucose + 10% FBS, 15.4 µM | 17.5 | 18.7 | 24.5
RPMI 5 mM glucose + 10% FBS, 46.1 µM | 5.95 | 6.26 | 5.4
RPMI 5 mM glucose + 10% dialyzed FBS, 0.000781 µM | 86.7 | 98.5 | 96.8
RPMI 5 mM glucose + 10% dialyzed FBS, 0.00234 µM | 90.2 | 94.9 | 74.4
RPMI 5 mM glucose + 10% dialyzed FBS, 0.00702 µM | 88.1 | 95.1 | 109
RPMI 5 mM glucose + 10% dialyzed FBS, 0.0211 µM | 89.3 | 101 | 97.7
RPMI 5 mM glucose + 10% dialyzed FBS, 0.0632 µM | 98.3 | 101 | 94.4
RPMI 5 mM glucose + 10% dialyzed FBS, 0.19 µM | 92.6 | 101 | 106
RPMI 5 mM glucose + 10% dialyzed FBS, 0.569 µM | 97.6 | 101 | 109
RPMI 5 mM glucose + 10% dialyzed FBS, 1.71 µM | 86.9 | 96.7 | 92.5
RPMI 5 mM glucose + 10% dialyzed FBS, 5.12 µM | 60.2 | 75.8 | 83.4
RPMI 5 mM glucose + 10% dialyzed FBS, 15.4 µM | 26.7 | 54.6 | 48.1
RPMI 5 mM glucose + 10% dialyzed FBS, 46.1 µM | 5.24 | 5.89 | 8.42

AUC of viability dose-response curve
Conditions | HPLM + 10% dialyzed FBS | RPMI 5 mM glucose + 10% FBS | RPMI 5 mM glucose + 10% dialyzed FBS
P12-Ichikawa [3] | 424 | 397 | 416
SEM cells [2] | 417 | 363 | 413
